Source: US11884676B2, “Substituted pyrimido[1,2-b]pyridazines as positive allosteric modulators of the muscarinic acetylcholine receptor M4” (Vanderbilt University, priority 2020, dated 2024)

Target: T1, Human M4 (Homo sapiens, UniProt P08173)
T1 construct: expressed in transfected cells
T1 sequence (P08173 1-479): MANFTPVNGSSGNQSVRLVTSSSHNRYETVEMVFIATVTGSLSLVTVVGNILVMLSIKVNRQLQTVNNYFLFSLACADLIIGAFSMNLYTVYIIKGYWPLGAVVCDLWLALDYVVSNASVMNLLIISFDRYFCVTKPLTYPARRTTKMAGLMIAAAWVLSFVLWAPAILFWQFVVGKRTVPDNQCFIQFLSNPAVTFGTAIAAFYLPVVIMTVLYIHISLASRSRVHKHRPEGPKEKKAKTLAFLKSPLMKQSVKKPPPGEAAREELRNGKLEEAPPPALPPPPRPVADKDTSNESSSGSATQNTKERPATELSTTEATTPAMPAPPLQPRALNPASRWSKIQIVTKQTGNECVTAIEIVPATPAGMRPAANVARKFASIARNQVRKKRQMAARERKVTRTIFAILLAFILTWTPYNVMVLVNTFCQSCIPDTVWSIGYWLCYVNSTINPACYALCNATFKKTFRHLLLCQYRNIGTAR
Assay: mAChR M4 cell-based functional assay (calcium flux, PAM mode)
Parameters: Emax: dose or concentration left out as unconfirmed
Details: for Emax at 30 µM: CHO-K1, % ACh maximum at 30 μM; for Emax at 30 µM / EC50: hM4-Gqi5 CHO-K1 cells; for EC50: concentration-dependent increase in the EC20 acetylcholine response
Method in brief: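 CHO-K1 cells stably co-expressing human M4 and chimeric Gqi5, Fluo-4 loaded; compound added first (11-point, 1:3 CRC), then EC20 acetylcholine at 144 s and EC80 at 230 s. PAM activity read on FDSS as concentration-dependent increase of EC20 ACh calcium response; EC50 and Emax from four-parameter logistic fit.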

| Compound | Emax at 30 µM | EC50 | Emax (CHO-K1, read-out: Human M4 Emax (%)*) |
| --- | --- | --- | --- |
| Cc1cc(=O)n2nc(N3CCC(Oc4ccc5c(c4)C(=O)NCC5)CC3)c(C)cc2n1 [Compound 72, 2,8-dimethyl-7-(4-((1-oxo-1,2,3,4-tetrahydroisoquinolin-7-yl)oxy)piperidin-1-yl)-4H-pyrimido[1,2-b]pyridazin-4-one] | 74% | 1540 nM | – |
| Cc1cc(=O)n2nc(N3CCC(Oc4ccc5c(c4)C(=O)N(C)CC5)CC3)c(C)cc2n1 [Compound 73, 2,8-dimethyl-7-(4-((2-methyl-1-oxo-1,2,3,4-tetrahydroisoquinolin-7-yl)oxy)piperidin-1-yl)-4H-pyrimido[1,2-b]pyridazin-4-one] | 85% | 2630 nM | – |
| Cc1cc(=O)n2nc(N3CCC(Oc4ccc5c(c4)CCN(C)C5=O)CC3)c(C)cc2n1 [Compound 74, 2,8-dimethyl-7-(4-((2-methyl-1-oxo-1,2,3,4-tetrahydroisoquinolin-6-yl)oxy)piperidin-1-yl)-4H-pyrimido[1,2-b]pyridazin-4-one] | 84% | 2360 nM | – |
| COc1ncc(OC2CCN(c3nn4c(=O)ccnc4cc3C)CC2)cc1C [Compound 75, 7-(4-((6-methoxy-5-methylpyridin-3-yl)oxy)piperidin-1-yl)-8-methyl-4H-pyrimido[1,2-b]pyridazin-4-one] | 84% | 1510 nM | – |
| COCc1ccc(OC2CCN(c3nn4c(=O)ccnc4cc3C)CC2)cn1 [Compound 76, 7-(4-((6-(methoxymethyl)pyridin-3-yl)oxy)piperidin-1-yl)-8-methyl-4H-pyrimido[1,2-b]pyridazin-4-one] | 60% | > 10000 nM | – |
| Cc1c(N2CCC(Oc3ccc(C(F)(F)F)cc3)CC2)nn2c(=O)ccnc2c1C [Compound 80, 8,9-dimethyl-7-(4-(4-(trifluoromethyl)phenoxy)piperidin-1-yl)-4H-pyrimido[1,2-b]pyridazin-4-one] | 76% | 2180 nM | – |
| Cc1c(N2CCC(Oc3ccc(C(F)(F)F)cc3)CC2)nn2c(=O)cc(C(F)F)nc2c1C [Compound 81, 2-(difluoromethyl)-8,9-dimethyl-7-(4-(4-(trifluoromethyl)phenoxy)piperidin-1-yl)-4H-pyrimido[1,2-b]pyridazin-4-one] | 73% | 2300 nM | – |
| Cc1cc(=O)n2nc(N3CCC(Oc4ccc5c(c4)CCNC5=O)CC3)c(C)cc2n1 [Compound 82, 2,8-dimethyl-7-(4-((1-oxo-1,2,3,4-tetrahydroisoquinolin-6-yl)oxy)piperidin-1-yl)-4H-pyrimido[1,2-b]pyridazin-4-one] | 74% | 3340 nM | – |
| Cc1c(N2CCC(Oc3ccc(Cl)cc3)CC2)nn2c(=O)ccnc2c1C [Compound 87] | – | 268 nM | 93% |
| Cc1cc2nccc(=O)n2nc1N1CCC(Oc2ccc(C(C)C)cc2)CC1 [Compound 90, 7-(4-(4-isopropylphenoxy)piperidin-1-yl)-8-methyl-4H-pyrimido[1,2-b]pyridazin-4-one] | 63% | 1110 nM | – |
| COCc1ncc(OC2CCN(c3nn4c(=O)ccnc4cc3C)CC2)cc1C [Compound 93, 7-(4-((6-(methoxymethyl)-5-methylpyridin-3-yl)oxy)piperidin-1-yl)-8-methyl-4H-pyrimido[1,2-b]pyridazin-4-one] | 70% | > 10000 nM | – |

More lines, in order of falling EC50, values ahead:

| Emax at 30 µM | EC50 | Compound | Emax (CHO-K1, read-out: Human M4 Emax (%)*) |
| --- | --- | --- | --- |
| 70% | 1070 nM | CCCc1ccc(OC2CCN(c3nn4c(=O)ccnc4cc3C)CC2)cc1 [Compound 91, 8-methyl-7-(4-(4-propylphenoxy)piperidin-1-yl)-4H-pyrimido[1,2-b]pyridazin-4-one] | – |
| 89% | 632 nM | [2H]C1(Oc2ccc(C)cc2)CCN(c2nn3c(=O)ccnc3cc2C)CC1 [Compound 92, 8-methyl-7-(4-(p-tolyloxy)piperidin-1-yl-4-d)-4H-pyrimido[1,2-b]pyridazin-4-one] | – |
| 76% | 503 nM | CCc1ccc(OC2CCN(c3nn4c(=O)ccnc4cc3C)CC2)cc1 [Compound 89, 7-(4-(4-ethylphenoxy)piperidin-1-yl)-8-methyl-4H-pyrimido[1,2-b]pyridazin-4-one] | – |
| 101% | 385 nM | Cc1ccc(OC2CCN(c3nn4c(=O)cc(C(F)F)nc4c(C)c3C)CC2)cc1 [Compound 85, 2-(difluoromethyl)-8,9-dimethyl-7-(4-(p-tolyloxy)piperidin-1-yl)-4H-pyrimido[1,2-b]pyridazin-4-one] | – |
| 77% | 383 nM | Cc1ccc(OC2CCN(c3nn4c(=O)ccnc4cc3C)CC2)cc1F [Compound 88, 7-(4-(3-fluoro-4-methylphenoxy)piperidin-1-yl)-8-methyl-4H-pyrimido[1,2-b]pyridazin-4-one] | – |
| 76% | 358 nM | Cc1c(N2CCC(Oc3ccc(Cl)cc3)CC2)nn2c(=O)cc(C(F)F)nc2c1C [Compound 79, 7-(4-(4-chlorophenoxy)piperidin-1-yl)-2-(difluoromethyl)-8,9-dimethyl-4H-pyrimido[1,2-b]pyridazin-4-one] | – |
| 101% | 341 nM | Cc1ccc(OC2CCN(c3nn4c(=O)ccnc4c(C)c3C)CC2)cn1 [Compound 86, 8,9-dimethyl-7-(4-((6-methylpyridin-3-yl)oxy)piperidin-1-yl)-4H-pyrimido[1,2-b]pyridazin-4-one] | – |
| 89% | 186 nM | Cc1c(N2CCC(Oc3ccc(F)cc3)CC2)nn2c(=O)ccnc2c1C [Compound 83, 7-(4-(4-fluorophenoxy)piperidin-1-yl)-8,9-dimethyl-4H-pyrimido[1,2-b]pyridazin-4-one] | – |
| 86% | 141 nM | Cc1c(N2CCC(Oc3ccc(F)cc3)CC2)nn2c(=O)cc(C(F)F)nc2c1C [Compound 84, 2-(difluoromethyl)-7-(4-(4-fluorophenoxy)piperidin-1-yl)-8,9-dimethyl-4H-pyrimido[1,2-b]pyridazin-4-one] | – |
| 101% | 91 nM | Cc1ccc(OC2CCN(c3nn4c(=O)ccnc4c(C)c3C)CC2)cc1 [Compound 77, 8,9-dimethyl-7-(4-(p-tolyloxy)piperidin-1-yl)-4H-pyrimido[1,2-b]pyridazin-4-one] | – |
| 95% | 76 nM | Cc1ccc(OC2CCN(c3nn4c(=O)cc(C(F)F)nc4c(C)c3C)CC2)cn1 [Compound 78, 2-(difluoromethyl)-8,9-dimethyl-7-(4-((6-methylpyridin-3-yl)oxy)piperidin-1-yl)-4H-pyrimido[1,2-b]pyridazin-4-one] | – |
| 84% | 30 nM | [2H]C1(Oc2ccc3c(c2)OC([2H])([2H])C([2H])([2H])O3)CCN(c2nn3c(=O)cc(C)nc3c(C)c2C)CC1 [Compound 94, 7-(4-((2,3-dihydrobenzo[b][1,4]dioxin-6-yl-2,2,3,3-d4)oxy)piperidin-1-yl-4-d)-2,8,9-trimethyl-4H-pyrimido[1,2-b]pyridazin-4-one] | – |
| 95% | 21 nM | Cc1c(N2CCC(Oc3ccc4c(c3)OCCO4)CC2)nn2c(=O)ccnc2c1C [Compound 71, 7-(4-((2,3-dihydrobenzo[b][1,4]dioxin-6-yl)oxy)piperidin-1-yl)-8,9-dimethyl-4H-pyrimido[1,2-b]pyridazin-4-one] | – |
